What was measured:
Assay in all cases: radiometric filter-binding kinase assay, Kinase HotSpot
Details in all cases: compound 0.5 µM; ATP 10 µM
KDR (human) = KDR (human) (UniProt P35968)
STK24 (human) = STK24 (human) (UniProt Q9Y6E0)
PRKCZ (human) = PRKCZ (human) (UniProt Q05513)
SRMS (human) = SRMS (human) (UniProt Q9H3Y6)
MAP3K14 (human) = MAP3K14 (human) (UniProt Q99558)
SLK (human) = SLK (human) (UniProt Q9H2G2)
DYRK1B (human) = DYRK1B (human) (UniProt Q9Y463)
GRK4 (human) = GRK4 (human) (UniProt P32298)
SGK2 (human) = SGK2 (human) (UniProt Q9HBY8)
ACVR1B (human) = ACVR1B (human) (UniProt P36896)
HIPK4 (human) = HIPK4 (human) (UniProt Q8NE63)
SIK2 (human) = SIK2 (human) (UniProt Q9H0K1)
DYRK3 (human) = DYRK3 (human) (UniProt O43781)
CAMKK2 (human) = CAMKK2 (human) (UniProt Q96RR4)
WNK2 (human) = WNK2 (human) (UniProt Q9Y3S1)
NUAK2 (human) = NUAK2 (human) (UniProt Q9H093)
BLK (human) = BLK (human) (UniProt P51451)
CDK1 CCNA2 (human) = CDK1 CCNA2 (human) (UniProt P06493+P20248)
[1] = target: TYK2 JH1 catalytic (human) (UniProt P29597)
TNK2 (human) = TNK2 (human) (UniProt Q07912)
STK3 (human) = STK3 (human) (UniProt Q13188)
CDK5 CDK5R1 p35 (human) = CDK5 CDK5R1 p35 (human) (UniProt Q00535+Q15078)
[2] = system: FLT4 (human), P35916 [Q890H]
PRKCD (human) = PRKCD (human) (UniProt Q05655)
ROCK1 (human) = ROCK1 (human) (UniProt Q13464)
CAMK2B (human) = CAMK2B (human) (UniProt Q13554)
PRKD3 (human) = PRKD3 (human) (UniProt O94806)
MET (human) = MET (human) (UniProt P08581)
MELK (human) = MELK (human) (UniProt Q14680)
CSF1R (human) = CSF1R (human) (UniProt P07333)
CAMKK1 (human) = CAMKK1 (human) (UniProt Q8N5S9)
RPS6KA1 KD1 KD2 (human) = RPS6KA1 KD1 KD2 (human) (UniProt Q15418)
PDGFRA (human) = PDGFRA (human) (UniProt P16234)
MAP4K5 (human) = MAP4K5 (human) (UniProt Q9Y4K4)
[3] = target: JAK1 JH1 catalytic (human) (UniProt P23458)
STK25 (human) = STK25 (human) (UniProt O00506)
EPHA5 (human) = EPHA5 (human) (UniProt P54756)
CDK4 CCND1 (human) = CDK4 CCND1 (human) (UniProt P24385+P11802)
ABL2 (human) = ABL2 (human) (UniProt P42684)
FGFR2 (human) = FGFR2 (human) (UniProt P21802)
PRKCB1 (human) = PRKCB1 (human) (UniProt P05771)
EPHA2 (human) = EPHA2 (human) (UniProt P29317)

Sequence of STK3 (human) (Q13188 whole entry, looked up): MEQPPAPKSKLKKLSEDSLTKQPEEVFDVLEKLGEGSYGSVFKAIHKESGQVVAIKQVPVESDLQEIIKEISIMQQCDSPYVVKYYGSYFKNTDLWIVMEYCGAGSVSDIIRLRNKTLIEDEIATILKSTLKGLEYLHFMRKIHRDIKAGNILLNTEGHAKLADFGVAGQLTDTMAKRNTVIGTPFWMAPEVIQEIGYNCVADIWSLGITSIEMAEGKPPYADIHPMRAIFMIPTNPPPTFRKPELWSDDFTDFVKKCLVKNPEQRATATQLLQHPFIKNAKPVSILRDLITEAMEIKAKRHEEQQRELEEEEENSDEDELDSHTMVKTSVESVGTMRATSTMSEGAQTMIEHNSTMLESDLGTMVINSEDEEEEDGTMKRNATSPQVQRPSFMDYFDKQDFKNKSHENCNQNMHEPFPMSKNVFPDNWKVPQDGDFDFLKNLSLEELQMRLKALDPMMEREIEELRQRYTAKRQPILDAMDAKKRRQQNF
Sequence of CDK4 CCND1 (human) (P11802 whole entry, looked up): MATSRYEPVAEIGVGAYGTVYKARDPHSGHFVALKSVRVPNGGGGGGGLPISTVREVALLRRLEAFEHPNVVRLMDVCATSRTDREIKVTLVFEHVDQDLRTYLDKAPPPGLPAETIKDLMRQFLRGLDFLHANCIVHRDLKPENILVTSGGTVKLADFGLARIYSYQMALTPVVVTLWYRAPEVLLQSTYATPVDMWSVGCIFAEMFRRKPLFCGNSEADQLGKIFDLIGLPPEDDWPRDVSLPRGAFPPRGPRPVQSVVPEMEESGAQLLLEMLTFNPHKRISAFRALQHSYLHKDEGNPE
Sequence of CDK4 CCND1 (human) (P24385 whole entry, looked up): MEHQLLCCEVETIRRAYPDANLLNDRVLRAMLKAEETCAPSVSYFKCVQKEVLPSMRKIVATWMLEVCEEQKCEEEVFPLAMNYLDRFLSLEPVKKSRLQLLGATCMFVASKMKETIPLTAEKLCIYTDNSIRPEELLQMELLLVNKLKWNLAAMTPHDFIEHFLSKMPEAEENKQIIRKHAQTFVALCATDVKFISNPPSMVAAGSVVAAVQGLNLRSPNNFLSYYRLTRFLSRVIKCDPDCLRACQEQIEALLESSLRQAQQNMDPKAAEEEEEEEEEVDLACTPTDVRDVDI
Sequence of SLK (human) (Q9H2G2 whole entry, looked up): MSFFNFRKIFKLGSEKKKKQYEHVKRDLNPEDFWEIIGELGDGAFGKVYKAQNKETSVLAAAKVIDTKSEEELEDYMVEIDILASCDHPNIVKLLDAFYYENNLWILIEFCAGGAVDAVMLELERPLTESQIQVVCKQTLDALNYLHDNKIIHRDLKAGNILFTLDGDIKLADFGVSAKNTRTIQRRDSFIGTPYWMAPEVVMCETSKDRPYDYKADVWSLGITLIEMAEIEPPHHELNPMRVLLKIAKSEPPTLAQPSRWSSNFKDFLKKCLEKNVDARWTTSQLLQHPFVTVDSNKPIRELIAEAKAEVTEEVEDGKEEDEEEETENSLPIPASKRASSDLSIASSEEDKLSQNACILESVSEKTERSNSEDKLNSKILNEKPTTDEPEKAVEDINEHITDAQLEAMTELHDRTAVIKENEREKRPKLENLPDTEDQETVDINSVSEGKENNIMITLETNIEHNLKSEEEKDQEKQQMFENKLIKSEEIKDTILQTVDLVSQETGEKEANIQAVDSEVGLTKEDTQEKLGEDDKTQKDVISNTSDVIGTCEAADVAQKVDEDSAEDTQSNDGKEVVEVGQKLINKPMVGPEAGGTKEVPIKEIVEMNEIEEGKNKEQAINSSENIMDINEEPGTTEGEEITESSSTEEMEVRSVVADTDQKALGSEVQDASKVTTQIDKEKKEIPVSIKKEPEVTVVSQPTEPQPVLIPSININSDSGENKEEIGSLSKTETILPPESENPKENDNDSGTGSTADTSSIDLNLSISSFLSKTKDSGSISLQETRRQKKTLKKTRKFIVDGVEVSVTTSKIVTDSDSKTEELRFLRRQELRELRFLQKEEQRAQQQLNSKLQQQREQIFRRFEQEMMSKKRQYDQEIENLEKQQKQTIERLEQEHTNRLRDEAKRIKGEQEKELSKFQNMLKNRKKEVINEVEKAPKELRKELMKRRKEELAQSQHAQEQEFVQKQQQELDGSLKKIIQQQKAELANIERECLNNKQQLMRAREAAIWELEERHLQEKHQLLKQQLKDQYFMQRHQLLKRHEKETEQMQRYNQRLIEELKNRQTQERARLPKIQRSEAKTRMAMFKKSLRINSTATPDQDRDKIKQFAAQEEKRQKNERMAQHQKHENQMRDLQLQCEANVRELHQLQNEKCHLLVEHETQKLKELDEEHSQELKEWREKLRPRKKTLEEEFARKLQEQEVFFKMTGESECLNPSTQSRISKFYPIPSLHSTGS
Sequence of NUAK2 (human) (Q9H093 whole entry, looked up): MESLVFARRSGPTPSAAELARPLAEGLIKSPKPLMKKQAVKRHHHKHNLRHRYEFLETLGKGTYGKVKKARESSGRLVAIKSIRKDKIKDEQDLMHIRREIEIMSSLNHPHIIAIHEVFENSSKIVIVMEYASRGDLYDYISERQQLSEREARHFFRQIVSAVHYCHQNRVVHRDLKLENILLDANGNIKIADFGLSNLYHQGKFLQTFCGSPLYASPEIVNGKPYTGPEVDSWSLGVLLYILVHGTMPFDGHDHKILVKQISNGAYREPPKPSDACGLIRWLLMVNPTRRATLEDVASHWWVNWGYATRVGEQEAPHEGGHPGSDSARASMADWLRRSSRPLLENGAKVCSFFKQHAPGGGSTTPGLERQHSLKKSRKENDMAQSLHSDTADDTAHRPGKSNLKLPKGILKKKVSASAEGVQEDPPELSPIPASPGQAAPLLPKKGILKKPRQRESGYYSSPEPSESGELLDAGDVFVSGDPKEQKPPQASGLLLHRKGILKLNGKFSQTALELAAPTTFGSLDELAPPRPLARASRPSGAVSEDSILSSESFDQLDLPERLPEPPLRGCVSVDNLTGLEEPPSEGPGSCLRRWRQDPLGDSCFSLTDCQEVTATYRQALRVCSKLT
Sequence of CSF1R (human) (P07333 whole entry, looked up): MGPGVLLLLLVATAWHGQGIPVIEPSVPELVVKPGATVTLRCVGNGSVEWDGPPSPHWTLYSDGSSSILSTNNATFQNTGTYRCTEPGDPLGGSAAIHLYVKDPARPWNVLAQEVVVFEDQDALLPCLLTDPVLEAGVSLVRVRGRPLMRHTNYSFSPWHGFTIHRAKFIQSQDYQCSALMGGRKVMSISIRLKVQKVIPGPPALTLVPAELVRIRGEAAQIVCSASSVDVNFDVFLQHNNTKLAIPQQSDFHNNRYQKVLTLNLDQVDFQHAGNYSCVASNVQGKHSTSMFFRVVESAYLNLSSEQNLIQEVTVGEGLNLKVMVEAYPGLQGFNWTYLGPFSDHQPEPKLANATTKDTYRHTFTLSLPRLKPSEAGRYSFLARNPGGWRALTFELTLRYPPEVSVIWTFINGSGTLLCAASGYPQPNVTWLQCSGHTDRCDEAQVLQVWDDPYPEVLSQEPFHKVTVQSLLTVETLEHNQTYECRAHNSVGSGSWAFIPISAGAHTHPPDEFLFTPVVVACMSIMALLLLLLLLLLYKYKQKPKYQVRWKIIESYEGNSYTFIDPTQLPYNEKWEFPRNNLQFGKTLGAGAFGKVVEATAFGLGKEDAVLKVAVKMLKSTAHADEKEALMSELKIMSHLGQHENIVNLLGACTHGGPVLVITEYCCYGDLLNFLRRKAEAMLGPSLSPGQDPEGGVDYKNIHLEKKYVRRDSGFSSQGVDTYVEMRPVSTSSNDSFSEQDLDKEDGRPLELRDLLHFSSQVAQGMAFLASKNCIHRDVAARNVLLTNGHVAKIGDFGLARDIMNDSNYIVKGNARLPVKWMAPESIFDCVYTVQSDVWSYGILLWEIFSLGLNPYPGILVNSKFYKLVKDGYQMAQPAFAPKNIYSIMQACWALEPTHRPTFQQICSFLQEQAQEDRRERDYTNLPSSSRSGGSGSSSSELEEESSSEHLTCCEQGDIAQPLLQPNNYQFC
Sequence of CDK1 CCNA2 (human) (P06493 whole entry, looked up): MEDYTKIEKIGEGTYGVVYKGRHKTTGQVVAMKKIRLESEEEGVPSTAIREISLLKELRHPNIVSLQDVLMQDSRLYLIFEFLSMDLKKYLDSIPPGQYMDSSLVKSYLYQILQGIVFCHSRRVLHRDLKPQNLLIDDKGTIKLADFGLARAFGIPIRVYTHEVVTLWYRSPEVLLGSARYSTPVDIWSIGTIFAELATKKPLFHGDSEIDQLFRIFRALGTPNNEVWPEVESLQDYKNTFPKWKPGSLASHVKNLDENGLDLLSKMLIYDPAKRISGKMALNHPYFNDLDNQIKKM
Sequence of CDK1 CCNA2 (human) (P20248 whole entry, looked up): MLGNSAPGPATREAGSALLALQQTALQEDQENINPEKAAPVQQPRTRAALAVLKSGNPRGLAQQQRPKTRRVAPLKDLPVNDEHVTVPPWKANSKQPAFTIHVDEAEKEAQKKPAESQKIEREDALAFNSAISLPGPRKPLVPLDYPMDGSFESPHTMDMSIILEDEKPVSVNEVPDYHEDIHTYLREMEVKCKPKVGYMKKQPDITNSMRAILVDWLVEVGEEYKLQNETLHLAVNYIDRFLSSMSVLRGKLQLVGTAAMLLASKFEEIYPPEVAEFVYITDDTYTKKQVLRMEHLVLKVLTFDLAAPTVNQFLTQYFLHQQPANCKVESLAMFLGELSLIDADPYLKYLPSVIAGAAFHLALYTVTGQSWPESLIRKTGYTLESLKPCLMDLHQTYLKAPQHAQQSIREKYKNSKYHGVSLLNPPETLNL
Sequence of SGK2 (human) (Q9HBY8 whole entry, looked up): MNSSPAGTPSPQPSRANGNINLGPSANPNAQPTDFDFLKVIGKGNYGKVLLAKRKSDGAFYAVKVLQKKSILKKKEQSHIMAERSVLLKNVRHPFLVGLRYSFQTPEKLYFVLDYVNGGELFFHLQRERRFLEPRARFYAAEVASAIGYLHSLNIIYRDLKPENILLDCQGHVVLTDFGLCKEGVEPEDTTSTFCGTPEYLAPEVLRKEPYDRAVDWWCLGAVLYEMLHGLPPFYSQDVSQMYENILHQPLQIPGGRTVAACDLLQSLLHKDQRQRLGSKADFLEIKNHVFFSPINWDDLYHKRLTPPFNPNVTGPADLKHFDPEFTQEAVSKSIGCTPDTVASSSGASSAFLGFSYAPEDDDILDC

Ic1cccc(CSc2nnc(-c3ccncc3)o2)c1
residual activity (KDR (human)): 78.1%
residual activity (STK24 (human)): 108%
residual activity (PRKCZ (human)): 96.1%
residual activity (SRMS (human)): 93.4%
residual activity (MAP3K14 (human)): 88.3%
residual activity (SLK (human)): 98.6%
residual activity (DYRK1B (human)): 96.7%
residual activity (GRK4 (human)): 99.9%
residual activity (SGK2 (human)): 102%
residual activity (ACVR1B (human)): 102%
residual activity (HIPK4 (human)): 98.8%
residual activity (SIK2 (human)): 100%
residual activity (DYRK3 (human)): 108%
residual activity (CAMKK2 (human)): 85.1%
residual activity (WNK2 (human)): 99.5%
residual activity (NUAK2 (human)): 98.9%
residual activity (BLK (human)): 103%
residual activity (CDK1 CCNA2 (human)): 99.8%
residual activity [1]: 105%
residual activity (TNK2 (human)): 101%
residual activity (STK3 (human)): 110%
residual activity (CDK5 CDK5R1 p35 (human)): 102%
residual activity [2]: 96.2%
residual activity (PRKCD (human)): 83.7%
residual activity (ROCK1 (human)): 88%
residual activity (CAMK2B (human)): 95.4%
residual activity (PRKD3 (human)): 98.4%
residual activity (MET (human)): 88.7%
residual activity (MELK (human)): 97.7%
residual activity (CSF1R (human)): 104%
residual activity (CAMKK1 (human)): 124%
residual activity (RPS6KA1 KD1 KD2 (human)): 98.6%
residual activity (PDGFRA (human)): 90.1%
residual activity (MAP4K5 (human)): 99.5%
residual activity [3]: 103%
residual activity (STK25 (human)): 96.2%
residual activity (EPHA5 (human)): 100%
residual activity (CDK4 CCND1 (human)): 96.3%
residual activity (ABL2 (human)): 110%
residual activity (FGFR2 (human)): 101%
residual activity (PRKCB1 (human)): 97.5%
residual activity (EPHA2 (human)): 102%

COc1ccc(S(=O)(=O)N(CCO)c2ccccc2CN(C)C/C=C/c2ccc(Cl)cc2)cc1
residual activity (KDR (human)): 101%
residual activity (STK24 (human)): 101%
residual activity (PRKCZ (human)): 100%
residual activity (SRMS (human)): 101%
residual activity (MAP3K14 (human)): 90.8%
residual activity (SLK (human)): 103%
residual activity (DYRK1B (human)): 104%
residual activity (GRK4 (human)): 94%
residual activity (SGK2 (human)): 99.8%
residual activity (ACVR1B (human)): 93.2%
residual activity (HIPK4 (human)): 101%
residual activity (SIK2 (human)): 97.4%
residual activity (DYRK3 (human)): 113%
residual activity (CAMKK2 (human)): 90.7%
residual activity (WNK2 (human)): 97.1%
residual activity (NUAK2 (human)): 113%
residual activity (BLK (human)): 103%
residual activity (CDK1 CCNA2 (human)): 96.5%
residual activity [1]: 110%
residual activity (TNK2 (human)): 94.1%
residual activity (STK3 (human)): 101%
residual activity (CDK5 CDK5R1 p35 (human)): 99.9%
residual activity [2]: 91%
residual activity (PRKCD (human)): 94.3%
residual activity (ROCK1 (human)): 99.7%
residual activity (CAMK2B (human)): 100%
residual activity (PRKD3 (human)): 97.1%
residual activity (MET (human)): 98.2%
residual activity (MELK (human)): 99.4%
residual activity (CSF1R (human)): 103%
residual activity (CAMKK1 (human)): 106%
residual activity (RPS6KA1 KD1 KD2 (human)): 108%
residual activity (PDGFRA (human)): 102%
residual activity (MAP4K5 (human)): 99.7%
residual activity [3]: 111%
residual activity (STK25 (human)): 99.6%
residual activity (EPHA5 (human)): 98.1%
residual activity (CDK4 CCND1 (human)): 94.6%
residual activity (ABL2 (human)): 97.4%
residual activity (FGFR2 (human)): 98.6%
residual activity (PRKCB1 (human)): 97.7%
residual activity (EPHA2 (human)): 104%

Source: the kinase profiling compilation of Christmann-Franck et al. (2016)
